Patent US20220389477A1, “METHOD FOR EVALUATING ANTIBIOTIC SUSCEPTIBILITY” (Vrije Universiteit Brussel, priority 2019, published 2022)
Converted amounts (≈) assume the structure as drawn.

Tests used:
Format in all cases: cell-based
Streptococcus Pneumoniae [1] = test: Optical third-derivative MIC method (MICSTRIP), broth + horse blood; conditions: for MICSTRIP (MIC): broth + horse blood
Text: (§1) The method of FIG. 1 starts at a time equal to zero, t0 (1). Preferably, said t0 is the moment a pure bacteria culture is finished being prepared. Alternatively, said t0 is the moment all wells contain both said bacteria culture and said antimicrobial drug. After the starting of the experiment each well is periodically illuminated with a light source and the intensity of the transmitted light is detected with a photodetector (2). Preferably, each well is illuminated and the intensity of the transmitted light is detected every hour (2). More preferably, each well is illuminated and the intensity of the transmitted light is detected every 5 to 15 min. After a predetermined time length, preferably after 4 hours, a first, a second and a third derivative of said measured intensity is calculated (3) in a first and a second time frame for each well. Preferably, said second time frame is the last measured time frame after the test has been running for said predetermined time length, and said first time frame is the time frame preceding the second time frame. More preferably, said first time frame is between two and three hours and said second time frame is between three and four hours. After the calculation of said derivatives, said first derivative in said second time frame of said reference well is compared to a growth speed threshold value (4). Preferably, said growth speed threshold value is 0.166 (4). If said first derivative in said second time frame of said reference well is larger than or equal to said growth speed threshold value said bacteria culture is classified as Type I (4). If said first derivative in said second time frame of said reference well is smaller than said growth speed threshold value said bacteria culture is classified as Type II (4). Subsequently, independent of the classification of the bacteria culture according to the two types, the method comprises the following steps which are performed for each well or for all wells except said reference well. Both said first and said second time frames are evaluated to see if there is an inflection point present in the second derivative in said first and/or said second time frame (5).
(§2) If said first and/or said second time frame comprise said inflection point than said third derivative in said first time frame is compared to said third derivative in said second time frame (6). If said third derivative in said first time frame is larger than said third derivative in said second time frame, then said first time frame and said second time frame are selected as a first and second time frame to be used in a minimal inhibitory concentration determination method (10). If said third derivative in said first time frame is not larger than said third derivative in said second time frame, then said well is illuminated again after a certain time period, preferably an hour, more preferably 5 to 15 min after said predetermined time length said, with a light source and the intensity of the transmitted light is detected with a photodetector forming a new time frame subsequent to said second time frame (7). A third derivative, and possibly also a first and/or a second derivative, is calculated in said new time frame (7). Further, in step (7) a new first time frame is put equal to said second time frame and a new second time frame to equal to said new time frame. Subsequently, said third derivative in said new first time frame is compared to said third derivative in said new second time frame (8). If said derivative in said new first time frame is larger than said third derivative in said new second time frame, then said new first time frame and said new second time frame are selected as a first and second time frame to be used in a minimal inhibitory concentration determination method (10). […]

Streptococcus Pneumoniae [2] = test: E-test, broth + horse blood trial
Experimental: Tables 14 and 15 show the results of experiment whereby a bacteria culture is grown in blood instead of broth. The experiments of Table 14 were conducted by illuminating the light-transmissive wells with a light having a wavelength of 635 nm. The experiments of Table 15 were conducted by illuminating the light-transmissive wells with a light having a wavelength of 650 nm. […] The determination of the best wavelength may or may not be based on the commercial availability of the spectral line. The choice of the optimal wavelength may or may not be determined by calculating the absorbance for various wavelengths. The choice of the optimal wavelength can also be based on the combination of the comparison with the other two methods, the commercial availability and on the calculation of the absorbance for various wavelengths.

Streptococcus Pneumoniae [3] = test: BMD, broth + horse blood trial
[4] = test system: Pseudomonas aeruginosa culture; test: Optical third-derivative MIC method, culture in broth; conditions: for MIC: Pseudomonas aeruginosa
Text: as §1, §2

[5] = test system: Pseudomonas aeruginosa culture; test: Broth microdilution (BMD)
[6] = test system: Pseudomonas aeruginosa culture; test: E-test; conditions: culture PA/2472

Row | MICSTRIP (MIC) (Streptococcus Pneumoniae [1]; strain 2532, 635 nm) [µg/mL] | MICSTRIP (MIC) (Streptococcus Pneumoniae [1]; strain 2532, 650 nm) [µg/mL] | MICSTRIP (MIC) (Streptococcus Pneumoniae [1]; strain 2543, 635 nm) [µg/mL] | MICSTRIP (MIC) (Streptococcus Pneumoniae [1]; strain 2543, 650 nm) [µg/mL] | MICSTRIP (MIC) (Streptococcus Pneumoniae [1]; strain 2544, 635 nm) [µg/mL] | MICSTRIP (MIC) (Streptococcus Pneumoniae [1]; strain 2544, 650 nm) [µg/mL] | MICSTRIP (MIC) (Streptococcus Pneumoniae [1]; strain ATCC 49619, 635 nm) [µg/mL] | MICSTRIP (MIC) (Streptococcus Pneumoniae [1]; strain ATCC 49619, 650 nm) [µg/mL] | E-test (MIC) (Streptococcus Pneumoniae [2]; strain 2543) [µg/mL] | E-test (MIC) (Streptococcus Pneumoniae [2]; strain 2544) [µg/mL] | E-test (MIC) (Streptococcus Pneumoniae [2]; strain ATCC 49619) [µg/mL] | BMD (MIC) (Streptococcus Pneumoniae [3]; strain 2532) [µg/mL] | BMD (MIC) (Streptococcus Pneumoniae [3]; strain 2543) [µg/mL] | BMD (MIC) (Streptococcus Pneumoniae [3]; strain 2544) [µg/mL] | BMD (MIC) (Streptococcus Pneumoniae [3]; strain ATCC 49619) [µg/mL] | SMILES | HR MICSTRIP (Streptococcus Pneumoniae [1]; strain ATCC 49619, 650 nm) | HR E-test (Streptococcus Pneumoniae [2]; strain 2532) | HR E-test (Streptococcus Pneumoniae [2]; strain 2543) | HR E-test (Streptococcus Pneumoniae [2]; strain 2544) | HR E-test (Streptococcus Pneumoniae [2]; strain ATCC 49619) | further results
1 | 0.016 | 0.016 | 0.256 | 0.256 | 0.064 | 0.064 | 0.032 | > 16 | 0.125 | 0.024 | 0.047 | 0.008 | 0.256 | 0.064 | 0.064 | CO/N=C(\C(=O)N[C@@H]1C(=O)N2C(C(=O)O)=C(CSc3nc(=O)c(=O)[nH]n3C)CS[C@H]12)c1csc(N)n1 [Ceftriaxone] | no (If the ratio of the MIC value in the second time frame over the MIC value in the first time frame is lower than or equal to 4 then the ratio is labelled not to be heteroresistant) | no | no | no | no | E-test (MIC) (Streptococcus Pneumoniae [2]; strain 2532): ≤ 0.16 µg/mL
2 |  |  |  |  |  |  |  |  |  |  |  |  |  |  |  | CO/N=C(\C(=O)N[C@@H]1C(=O)N2C(C(=O)[O-])=C(C[N+]3(C)CCCC3)CS[C@H]12)c1csc(N)n1 [cefepime] |  |  |  |  |  | MIC ([4]; PA/2467, 5 h-6 h, only time frame, omitted from determination (Type II), read-out: MIC (25%)): 8 µg/mL (≈ 16.6 µM); MIC ([4]; PA/2467, 5 h-6 h, only time frame, read-out: MIC (40%)): 8 µg/mL (≈ 16.6 µM); MIC ([4]; PA/2467, 5 h-6 h, only time frame, read-out: MIC (60%)): 4 µg/mL (≈ 8.32 µM); MIC ([4]; PA/2467, 5 h-6 h, only time frame, read-out: MIC (75%)): 4 µg/mL (≈ 8.32 µM); MIC ([4]; PA/2467, FIG. 5F, overall conclusion, read-out: MIC value determined by the method): 8 µg/mL (≈ 16.6 µM); MIC ([5]; culture PA/2467): 16 µg/mL (≈ 33.3 µM)
3 |  |  |  |  |  |  |  |  |  |  |  |  |  |  |  | CC(C)(O/N=C(\C(=O)N[C@@H]1C(=O)N2C(C(=O)[O-])=C(C[n+]3ccccc3)CS[C@H]12)c1csc(N)n1)C(=O)O [ceftazidime] |  |  |  |  |  | heteroresistance determined by the method ([4]; PA/2472, FIG. 5E, overall conclusion): not heteroresistant; HR? at MIC (40%) ([4]; PA/2472, ratio MIC T2/T1): no (If the ratio of the MIC value in the second time frame over the MIC value in the first time frame is lower than or equal to 4 then the ratio is labelled not to be heteroresistant); HR? at MIC (60%) ([4]; PA/2472, ratio MIC T2/T1): no (If the ratio of the MIC value in the second time frame over the MIC value in the first time frame is lower than or equal to 4 then the ratio is labelled not to be heteroresistant); HR? at MIC (75%) ([4]; PA/2472, ratio MIC T2/T1): no (If the ratio of the MIC value in the second time frame over the MIC value in the first time frame is lower than or equal to 4 then the ratio is labelled not to be heteroresistant); HR? at MIC (25%) ([4]; PA/2472, ratio MIC T2/T1, omitted (Type II)): no (If the ratio of the MIC value in the second time frame over the MIC value in the first time frame is lower than or equal to 4 then the ratio is labelled not to be heteroresistant); MIC ([4]; PA/2472, 3 h-4 h, omitted from determination (Type II), read-out: MIC (25%) T1): 64 µg/mL (≈ 117 µM); MIC ([4]; PA/2472, 3 h-4 h, read-out: MIC (40%) T1): 32 µg/mL (≈ 58.5 µM); MIC ([4]; PA/2472, 3 h-4 h, read-out: MIC (60%) T1): 32 µg/mL (≈ 58.5 µM); MIC ([4]; PA/2472, 3 h-4 h, read-out: MIC (75%) T1): 32 µg/mL (≈ 58.5 µM); MIC ([4]; PA/2472, 5 h-6 h, omitted from determination (Type II), read-out: MIC (25%) T2): 64 µg/mL (≈ 117 µM); MIC ([4]; PA/2472, 5 h-6 h, read-out: MIC (40%) T2): 32 µg/mL (≈ 58.5 µM); MIC ([4]; PA/2472, 5 h-6 h, read-out: MIC (60%) T2): 32 µg/mL (≈ 58.5 µM); MIC ([4]; PA/2472, 5 h-6 h, read-out: MIC (75%) T2): 32 µg/mL (≈ 58.5 µM); MIC ([4]; PA/2472, FIG. 5E, overall conclusion, read-out: MIC value determined by the method): 32 µg/mL (≈ 58.5 µM); MIC ([6]; Pseudomonas aeruginosa): 32 µg/mL (≈ 58.5 µM); HR? (E-test) [6]: no; MIC ([5]; culture PA/2472): 32 µg/mL (≈ 58.5 µM)
4 | 0.016 | 0.016 | 1 | 1 | 0.256 | 0.256 | 0.256 | 0.256 | 1.5 | 0.1 | 0.25 | 0.016 | 2 | 0.256 | 0.256 | CC1(C)S[C@@H]2[C@H](NC(=O)Cc3ccccc3)C(=O)N2[C@H]1C(=O)O [Benzyl-penicilline] | no (If the ratio of the MIC value in the second time frame over the MIC value in the first time frame is lower than or equal to 4 then the ratio is labelled not to be heteroresistant) | no | no | no | no | HR MICSTRIP (Streptococcus Pneumoniae [1]; strain 2543, 635 nm): no (If the ratio of the MIC value in the second time frame over the MIC value in the first time frame is lower than or equal to 4 then the ratio is labelled not to be heteroresistant); HR MICSTRIP (Streptococcus Pneumoniae [1]; strain 2543, 650 nm): no (If the ratio of the MIC value in the second time frame over the MIC value in the first time frame is lower than or equal to 4 then the ratio is labelled not to be heteroresistant); HR MICSTRIP (Streptococcus Pneumoniae [1]; strain ATCC 49619, 635 nm): no (If the ratio of the MIC value in the second time frame over the MIC value in the first time frame is lower than or equal to 4 then the ratio is labelled not to be heteroresistant)
